Experimental findings from PubChem BioAssay (NCI) are described below.

Where “and” joins values, the source holds several entries; their conditions need not be identical. Identical values can stand only once.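 1) Cells in 96-well plates. 2) Compound, 48 h, 5 concentrations. 3) Linear interpolation between surrounding doses. 4) Unreached endpoint = highest concentration. GI50 = concentration required for 50% inhibition of growth. Definition used: TGI = concentration required for complete inhibition of growth.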

Test systems include SK-MEL-2 melanoma; HS 578T breast; SF-295 CNS; UACC-257 melanoma; MALME-3M melanoma; SF-268 CNS; UO-31 renal; NCI-H23 lung; NCI-H522 lung; RXF 393 renal.
Assay in all cases: inhibition of tumour cell growth, NCI panel, 48 h

On to `COC1(C(=O)N[C@@H](C)c2ccc(-n3cc(F)cn3)nc2)CCC(c2nc(C)cc(Nc3cc(C)[nH]n3)n2)CC1` (stereo partly drawn), for which the GI50 in the experiment with SK-MEL-2 melanoma was 6.82 µM; in the experiment on HS 578T breast, 0.248 µM; in the experiment with SF-295 CNS, 1.17 µM; with UACC-257 melanoma it was 10.9 µM; with MALME-3M melanoma it was 5.87 µM; in the experiment on SF-268 CNS, 0.811 µM. Moreover, the GI50 in the experiment with UO-31 renal is 0.436 µM; with NCI-H23 lung it was 2.6 µM; in the experiment with NCI-H522 lung, 2.26 µM; in the experiment with RXF 393 renal, 0.177 µM. In addition, the TGI in the experiment with SK-MEL-2 melanoma is 23.2 µM; with HS 578T breast, 1.31 µM; with SF-295 CNS it was 3.95 µM; with UACC-257 melanoma, 26.5 µM; with MALME-3M melanoma, 21.7 µM; with SF-268 CNS, 8.04 µM. Moreover, the TGI worked out at 1.99 µM in the experiment on UO-31 renal, 19.9 µM in the experiment on NCI-H23 lung, 16.7 µM with NCI-H522 lung and 0.665 µM in the experiment with RXF 393 renal.

As to `CNC(=O)c1cncc(/C=C/c2ccccc2C)c1`, the GI50 in the experiment with SK-MEL-2 melanoma, in the experiment on HS 578T breast, in the experiment on SF-295 CNS, in the experiment on UACC-257 melanoma, in the experiment with MALME-3M melanoma and in the experiment with SF-268 CNS was over 25 µM in each case. The GI50 in the experiment with UO-31 renal, in the experiment on NCI-H23 lung, with NCI-H522 lung and with RXF 393 renal was over 25 µM each time. The TGI with SK-MEL-2 melanoma, in the experiment on HS 578T breast, in the experiment with SF-295 CNS, in the experiment with UACC-257 melanoma, in the experiment with MALME-3M melanoma and in the experiment with SF-268 CNS was over 25 µM each time. Besides, the TGI in the experiment on UO-31 renal, in the experiment with NCI-H23 lung, in the experiment on NCI-H522 lung and with RXF 393 renal was over 25 µM throughout.

`O=CNc1c(Cl)cc2c(c1Cl)Cc1cc([N+](=O)[O-])ccc1-2`: the GI50 in the experiment with SK-MEL-2 melanoma was 27.9 µM; in the experiment with HS 578T breast, 1.77 µM; in the experiment with SF-295 CNS, 3.05 µM; in the experiment with UACC-257 melanoma, 64 µM; with MALME-3M melanoma, 3.85 µM; in the experiment on SF-268 CNS it was 6.63 µM. Besides, the GI50 was 1.81 µM with UO-31 renal, 5.56 µM in the experiment with NCI-H23 lung, 3.05 µM in the experiment with NCI-H522 lung and 10.8 µM in the experiment on RXF 393 renal. Further, the TGI with SK-MEL-2 melanoma was over 86.6 µM; with HS 578T breast it was 14.4 µM; with SF-295 CNS, 14.3 µM; in the experiment on UACC-257 melanoma it was over 100 µM; with MALME-3M melanoma, over 100 µM; in the experiment with SF-268 CNS, over 100 µM. Besides, the TGI in the experiment on UO-31 renal was 29.3 µM; in the experiment with NCI-H23 lung it was over 66.8 µM; with NCI-H522 lung it was over 29.1 µM; in the experiment on RXF 393 renal, 46.4 µM.

As to `COc1cc(C2c3cc4c(cc3[C@@H](Nc3ccc(C#N)cc3)C3COC(=O)[C@H]23)OCO4)cc(OC)c1O` (stereo partly drawn), the GI50 in the experiment on SK-MEL-2 melanoma was 1.77 µM and 8.87 µM; in the experiment with HS 578T breast it was 3.38 µM; in the experiment on SF-295 CNS, 0.336 µM; with MALME-3M melanoma it was 0.217 µM and 1.9 µM; with SF-268 CNS, 1.4 µM; in the experiment with UO-31 renal, 0.26 µM and 0.968 µM. Further, the GI50 in the experiment on NCI-H23 lung was 0.753 µM and 0.532 µM; with NCI-H522 lung, 1.44 µM and 1.55 µM; with RXF 393 renal, 2.53 µM. Moreover, the TGI in the experiment on HS 578T breast is 29.1 µM and > 100 µM; in the experiment with SF-295 CNS, 8.74 µM and 3.65 µM; in the experiment with UACC-257 melanoma it was 33.3 µM; with MALME-3M melanoma, 9.66 µM and 2.69 µM and 17.2 µM; in the experiment on SF-268 CNS it was 42.5 µM and > 100 µM; in the experiment with UO-31 renal, 7.14 µM and 5.42 µM and 2.64 µM. In addition, the TGI in the experiment with NCI-H23 lung is 2.53 µM and 3.67 µM and 4.36 µM; in the experiment on NCI-H522 lung it was 7.51 µM and 4.48 µM and 7.4 µM; in the experiment on RXF 393 renal, 4.96 µM and 9.01 µM.

On to `O=C(Cn1ccc(=O)[nH]c1=O)Nc1ccc(C(=O)O)c(O)c1`, for which the TGI in the experiment on SK-MEL-2 melanoma, in the experiment with HS 578T breast, in the experiment with SF-295 CNS, in the experiment with UACC-257 melanoma, in the experiment with MALME-3M melanoma and in the experiment with SF-268 CNS was over 100 µM throughout. In addition, the TGI in the experiment on UO-31 renal, in the experiment with NCI-H23 lung, in the experiment with NCI-H522 lung and in the experiment on RXF 393 renal was over 100 µM each time.

As for `CN(CCCN)CCCNc1nc2ccccc2c2[nH]c3ccccc3c12`, the GI50 was 0.306 µM in the experiment on SK-MEL-2 melanoma; 0.0765 µM with HS 578T breast; 0.224 µM in the experiment on SF-295 CNS; 1.77 µM with UACC-257 melanoma; 0.115 µM in the experiment on MALME-3M melanoma; 0.241 µM in the experiment on SF-268 CNS. Besides, the GI50 with UO-31 renal was 0.337 µM; in the experiment on NCI-H23 lung it was 0.201 µM; with NCI-H522 lung it was 0.0613 µM; with RXF 393 renal it was 0.109 µM. Besides, the TGI with SK-MEL-2 melanoma is 0.835 µM; in the experiment on HS 578T breast it was 0.334 µM; with SF-295 CNS, 0.738 µM; in the experiment on UACC-257 melanoma, 3.49 µM; in the experiment on MALME-3M melanoma, 0.325 µM; in the experiment with SF-268 CNS, 1.07 µM. The TGI was 1.34 µM in the experiment with UO-31 renal, 0.57 µM in the experiment with NCI-H23 lung, 0.215 µM with NCI-H522 lung and 0.515 µM in the experiment with RXF 393 renal.

As for `CCN(CC)c1ccc(C(=C2C=CC(=[N+](CC)Cc3cccc(S(=O)(=O)O)c3)C=C2)c2ccc(N(CC)Cc3cccc(S(=O)(=O)O)c3)cc2)cc1`, the GI50 with SK-MEL-2 melanoma is 10.5 µM; in the experiment with HS 578T breast, 2.86 µM; in the experiment on SF-295 CNS it was 2.81 µM; in the experiment on UACC-257 melanoma, 21 µM; in the experiment on MALME-3M melanoma, 5.52 µM; with SF-268 CNS it was 4.12 µM. Also, the GI50 was 16.3 µM in the experiment with UO-31 renal, 5.14 µM in the experiment with NCI-H23 lung, 7.88 µM in the experiment with NCI-H522 lung and 7.94 µM with RXF 393 renal. Also, the TGI in the experiment with SK-MEL-2 melanoma is over 92.2 µM; in the experiment with HS 578T breast, over 30.5 µM; in the experiment on SF-295 CNS it was over 47 µM; in the experiment on UACC-257 melanoma it was over 100 µM; in the experiment with MALME-3M melanoma it was 53.1 µM; in the experiment with SF-268 CNS it was over 79.4 µM. For the same molecule, the TGI in the experiment on UO-31 renal was over 91.9 µM; with NCI-H23 lung, 80.2 µM; in the experiment on NCI-H522 lung, over 79.2 µM; in the experiment on RXF 393 renal it was 76.1 µM.

For the molecule `C=CCc1c2c(c(OC)c3ccoc13)C(=O)/C(=C/c1ccccc1OC)O2`, the GI50 in the experiment with SK-MEL-2 melanoma is 6.06 µM; with HS 578T breast, 5.29 µM; in the experiment with SF-295 CNS, 3.67 µM; in the experiment on UACC-257 melanoma, 6.41 µM; in the experiment on MALME-3M melanoma it was 19.8 µM; in the experiment on SF-268 CNS, 3.73 µM. The GI50 with UO-31 renal is 4.98 µM; with NCI-H23 lung, 2.88 µM; with NCI-H522 lung it was 3.16 µM; with RXF 393 renal it was 2.47 µM. In addition, the TGI in the experiment on SK-MEL-2 melanoma is over 100 µM; in the experiment on HS 578T breast, over 100 µM; with SF-295 CNS, over 100 µM; with UACC-257 melanoma, over 100 µM; in the experiment with MALME-3M melanoma it was over 100 µM; in the experiment on SF-268 CNS it was 60.4 µM. For the same molecule, the TGI in the experiment on UO-31 renal was over 100 µM; in the experiment with NCI-H23 lung it was 14.7 µM; in the experiment on NCI-H522 lung it was 31.7 µM; in the experiment on RXF 393 renal, 6.92 µM.

As for `CCN1C(=O)N(CC)C2C1NN=c1s/c(=C\c3cccnc3)c(=O)n12` (stereo not drawn), the GI50 is over 100 µM in the experiment with SK-MEL-2 melanoma; 0.44 µM in the experiment on HS 578T breast; 0.353 µM in the experiment with SF-295 CNS; over 100 µM in the experiment with UACC-257 melanoma; 0.599 µM with MALME-3M melanoma; 21.8 µM in the experiment with SF-268 CNS. Also, the GI50 is 1.53 µM in the experiment with UO-31 renal, 0.689 µM with NCI-H23 lung, 0.474 µM in the experiment with NCI-H522 lung and 0.271 µM in the experiment on RXF 393 renal. For the same molecule, the TGI in the experiment on SK-MEL-2 melanoma, in the experiment on HS 578T breast, with SF-295 CNS, in the experiment with UACC-257 melanoma, in the experiment on MALME-3M melanoma and in the experiment on SF-268 CNS was over 100 µM throughout. In addition, the TGI in the experiment with UO-31 renal was over 100 µM; in the experiment with NCI-H23 lung it was over 100 µM; in the experiment with NCI-H522 lung it was over 100 µM; with RXF 393 renal, 3.35 µM.

With `CN1CCN(CCc2cccc(C(=O)c3cnn(-c4ccc(F)cc4)c3N)c2)CC1`, the GI50 in the experiment with SK-MEL-2 melanoma, with HS 578T breast, with SF-295 CNS, with UACC-257 melanoma, in the experiment with MALME-3M melanoma and in the experiment with SF-268 CNS was over 25 µM each time. The GI50 in the experiment on UO-31 renal, with NCI-H23 lung, in the experiment on NCI-H522 lung and with RXF 393 renal was over 25 µM throughout. The TGI with SK-MEL-2 melanoma, in the experiment with HS 578T breast, in the experiment with SF-295 CNS, in the experiment on UACC-257 melanoma, with MALME-3M melanoma and in the experiment on SF-268 CNS was over 25 µM in each case. Moreover, the TGI in the experiment on UO-31 renal, with NCI-H23 lung, with NCI-H522 lung and in the experiment on RXF 393 renal was over 25 µM in each case.

Turning to `COc1cc(Cl)cc(-c2nn(C(=O)NCCN3CCOCC3)cc2-c2ccncc2)c1`, the GI50 with SK-MEL-2 melanoma is 10.9 µM; in the experiment on HS 578T breast, 6.38 µM; with SF-295 CNS, 2.75 µM; with UACC-257 melanoma it was 18.4 µM; with MALME-3M melanoma, 9.77 µM; in the experiment on SF-268 CNS, 6.69 µM. In addition, the GI50 with UO-31 renal was 3.85 µM; with NCI-H23 lung, 11.5 µM; with NCI-H522 lung, 3.38 µM; in the experiment with RXF 393 renal it was 2.67 µM. Besides, the TGI with SK-MEL-2 melanoma is 44.3 µM; in the experiment on HS 578T breast, 41 µM; in the experiment with SF-295 CNS it was 13.5 µM; with UACC-257 melanoma, over 100 µM; with MALME-3M melanoma, over 100 µM; in the experiment with SF-268 CNS, over 100 µM. Moreover, the TGI in the experiment on UO-31 renal is 64.6 µM; with NCI-H23 lung it was over 100 µM; in the experiment with NCI-H522 lung, over 100 µM; with RXF 393 renal, 19.9 µM.

Consider `CN(C)/C=C/c1nnc([N+](=O)[O-])s1`, for which the TGI in the experiment with SK-MEL-2 melanoma was found to be 39.3 µM; with HS 578T breast, 42.6 µM; with SF-295 CNS it was 39.4 µM; with UACC-257 melanoma it was 27.2 µM; in the experiment on MALME-3M melanoma it was 14.6 µM; in the experiment with SF-268 CNS, 42.1 µM. For the same molecule, the TGI in the experiment on UO-31 renal was 29.7 µM; in the experiment with NCI-H23 lung it was 36.8 µM; in the experiment with NCI-H522 lung, 3.27 µM; in the experiment on RXF 393 renal, 31.4 µM.
